# Measurements published in patent US12404489B2, “Establishing topographic organization in three-dimensional tissue culture” (MEMORIAL SLOAN-KETTERING CANCER CENTER, priority 2017, dated 2025).
# “Also recorded” adds a separate entry of the source. Where two headings read alike, the source gives them in different places.
# Experiments:
# [1] = test system: SHH signaling activity in SHH-organoids; assay: Drug treatment of SHH-organoids, positional domains analysed at day 20; assay type: cell-based, human; settings: day 20 SHH-organoids
# Experimental: Day 20 organoids were fixed in 4% PFA overnight at 4° C. and washed three times with PBS the next day. […] Sections were blocked for 30 minutes in 10% FBS, 1% BSA, 0.3% triton in PBS, and incubated as floating section in primary antibody overnight. The next day, sections were washed with PBS and incubated as floating section in secondary antibody for 3 hours at room temperature. Day 6 organoids were fixed in 4% PFA for 2 hours at 4° C. and washed three times with PBS. After fixation, tissue was cryoprotected in 30% sucrose/PBS and sectioned at […] and mounted directly onto slides prior to immunofluorescence assays.
# Organoid topography was quantified by first dividing each image into a grid of […] squares (day 20 analysis) or […] squares (day 6 analysis) that form a Cartesian coordinate grid. Each square is a discrete region of interest (ROI) that is associated with an X and Y coordinate. The origin of the grid was calculated for each image as the “center of mass” of the iSHH-organizer cells: CMx=S mixi/M and CMy=S miyi/M, where m=grey value intensity of iSHH cells for individual ROIs, x or y=coordinate, and M=total intensity for all ROIs, and the sum includes all x or y coordinates in the image. Next, ROI's that were positive for expression of a given protein (e.g. PAX6) were defined by thresholding staining intensity and determining ROIs with positive immunoreactivity. The linear distance from the origin to each ROI (sqrt((ROIx-CM^x)^2+(ROIy-CMy)^2)) was calculated. The present study analyzed every sixth section for each regional marker per organoid (typically 2-5 sections/organoid, depending on organoid size), thus sampling the organoids in 150 μm intervals using uniform random sampling.
# [2] = test system: SHH signaling activity in SHH-organoids; assay: Drug treatment of SHH-organoids, NKX2.2 induction at day 6; assay type: cell-based, human; settings: day 6 organoids
# Experimental: Day 20 organoids were fixed in 4% PFA overnight at 4° C. and washed three times with PBS the next day. After fixation, tissue was cryoprotected in 30% sucrose/PBS and sectioned at […] on a cryostat (Leica 3050 S). Sections were blocked for 30 minutes in 10% FBS, 1% BSA, 0.3% triton in PBS, and incubated as floating section in primary antibody overnight. The next day, sections were washed with PBS and incubated as floating section in secondary antibody for 3 hours at room temperature. Day 6 organoids were fixed in 4% PFA for 2 hours at 4° C. and washed three times with PBS. After fixation, tissue was cryoprotected in 30% sucrose/PBS and sectioned at […] and mounted directly onto slides prior to immunofluorescence assays.
# Organoid topography was quantified by first dividing each image into a grid of […] squares (day 20 analysis) or […] squares (day 6 analysis) that form a Cartesian coordinate grid. […] The origin of the grid was calculated for each image as the “center of mass” of the iSHH-organizer cells: CMx=S mixi/M and CMy=S miyi/M, where m=grey value intensity of iSHH cells for individual ROIs, x or y=coordinate, and M=total intensity for all ROIs, and the sum includes all x or y coordinates in the image. […] The linear distance from the origin to each ROI (sqrt((ROIx-CM^x)^2+(ROIy-CMy)^2)) was calculated. […]
# [3] = test system: SHH signaling in SHH organizer-containing organoids; assay: Example 6.2: SHH organizer-containing organoids treated with cholesterol inhibitors (FIGS. 15-16); assay type: cell-based, human; settings: for SHH signaling (PAX6+ extent of organoid): FIG. 15; for long-range and short-range SHH signaling: FIG. 16
# Experimental: To evaluate the effect of statins on fetal development, in certain embodiments SHH organizer-containing organoids are treated with statins.
# FIG. 16 summarizes the effects of cholesterol inhibition on SHH organizer-containing organoids.
# SHH-organoids [4] = test system: SHH-organoids
# SHH-organoids [5] = assay: Drug treatment of SHH-organoids, organoid and organizer size at day 20
# SW480 cells = settings: cited from earlier work
# [6] = doxycycline 400 ng/ml, lovastatin 5 μM, AY9944 1.25 μM
# [7] = lovastatin 5 μM, AY9944 1.25 μM, cyclopamine 1 μM
compound,measurement,setting,value
Clc1ccccc1CNCC1CCC(CNCc2ccccc2Cl)CC1 (centres unmarked) [AY9944],SHH signaling activity (efficacy and range),"[1]; doxycycline 400 ng/ml, drug day 0-10, lovastatin 5 μM, AY9944 1.25 μM, cyclopamine 1 μM",reduced the efficacy and range of SHH signaling activity; also recorded: strong reduction the range of SHH-signaling activity
same,NKX2.2 induction,[1]; [6],largely blocked; also recorded: fail to induce NKX2.2
same,NKX2.1 expression in or near the organizer,[1]; [7],retained diencephalic NKX2.1 expression; also recorded: only retain NKX2.1 expression in the immediate vicinity of the organizer; also recorded: retain NKX2.1 and OTX2 expression within the organizer
same,NKX2.2 induction,[2]; all concentrations tested,strongly inhibited NKX2.2 induction at all concentrations tested; also recorded: strongly inhibits induction of NKX2.2
same,SHH signaling (PAX6+ extent of organoid),[3],largely blocked SHH signaling
same,long-range and short-range SHH signaling,[3],"block long-range SHH signaling, but not short range signaling"
same,overall organoid size / growth,SHH-organoids [4],impaired growth
same,size of the organizer,SHH-organoids [4],did not reduce the size of the organizer itself
CC[C@H](C)C(=O)O[C@H]1C[C@@H](C)C=C2C=C[C@H](C)[C@H](CC[C@@H]3C[C@@H](O)CC(=O)O3)[C@H]21 [Lovastatin],GSH2 expression domain,"[1]; doxycycline 400 ng/ml, lovastatin 5 μM",concomitant increase in GSH2 expression; also recorded: increase in the relative area of the GSH2 expression domain
same,NKX2.2 induction,[1]; [6],partial block in NKX2.2 induction; also recorded: moderate reduction in NKX2.2 induction
same,NKX2.1 expression in or near the organizer,[1]; [7],retained diencephalic NKX2.1 expression; also recorded: retain NKX2.1 and OTX2 expression within the organizer
same,distance at which NKX2.2 is induced from the organizer,"[2]; lovastatin 2, 5, 20 μM",reduced the distance at which NKX2.2 is induced from the organizer in a dose-dependent manner; also recorded: dose-dependent reduction
same,size of the organizer,SHH-organoids [5],did not reduce the size of the organizer itself
same,overall organoid size / growth,SHH-organoids [5]; drug day 0-10,impaired growth
Oc1nc(-c2ccc(C(F)(F)F)cc2)nc2c1CSCC2 [XAV939],degradation of β-catenin,SW480 cells,promotes the degradation of β-catenin
same,protein levels of the axin-GSK3β complex,SW480 cells,increases the protein levels of the axin-GSK3β complex
CC1=C2C[C@H]3[C@@H](CC=C4C[C@@H](O)CC[C@@]43C)[C@@H]2CC[C@]12O[C@@H]1C[C@H](C)CN[C@H]1[C@H]2C [cyclopamine],PAX6 expression,"[1]; doxycycline 400 ng/ml, cyclopamine 1 μM",nearly uniform for PAX6 expression; also recorded: largely express PAX6
same,NKX2.1 expression in or near the organizer,[1]; [7],not
same,SHH signaling (PAX6+ extent of organoid),[3],no SHH signaling
same,long-range and short-range SHH signaling,[3],block all SHH signaling
